The source of these data is paper PMC7570852, “Ruthenium(II)/(III) DMSO-Based Complexes of 2-Aminophenyl Benzimidazole with In Vitro and In Vivo Anticancer Activity” (Molecules, 2020).

Marks after values point to notes of the source that are not given here.

The nature of series [1]: Solution stability by UV-Vis spectroscopy. The class given is physicochemical. To be noted: 4% DMSO, 96% PBS, pH 7.4, over 24 h. On the procedure: Stability studies of complexes (1) and (2) were carried out by UV-Vis spectroscopy in the 200–900 nm range. […] The electronic spectra for the solutions were measured over 24 h.
Series [2] has as its system Ehrlich ascites carcinoma (EAC). Kind of series: Serum liver and kidney function tests, EAC-bearing mice. Type of series: in vivo. The following applies: mean ± SEM. On the procedure: The mice were divided into the following eight groups (10 mice in each group): • Control group: Mice were intraperitoneally injected with a vehicle (2% DMSO + sterile saline) for 12 days. • I, II, and III control groups: Healthy normal mice were intraperitoneally injected with 6, 12, and 18 mg/kg of complex (2), respectively, for 12 days. • EAC group: Mice were intraperitoneally injected by a single dose of 2.5 × 10^6 viable Ehrlich ascites carcinoma (EAC) cells in PBS. In brief, EAC cells were withdrawn from the EAC mouse’s intraperitoneal cavity, washed, and centrifuged three times with sterile saline. Then, the pellets were suspended in sterile PBS and counted by the trypan blue exclusion assay, which confirmed that the viability of the cells was 98%. • I, II, and III treated groups: Firstly, 30 healthy mice were intraperitoneally injected with a single dose of 2.5 × 10^6 viable EAC cells. After one day; the mice were divided into I, II, and III treated groups (10 mice each group), intraperitoneally injected with 6, 12, and 18 mg/kg Ru(III) complex, respectively, for 12 days.
The animals were monitored for EAC growth by measuring abdominal size. At the end of the experiment all animals were fasted overnight then sacrificed. Serum samples were collected to study the biological parameters such as liver and kidney function as well as antioxidant enzyme activity. Liver samples from each group were frozen immediately in liquid nitrogen for molecular analysis.
Liver function tests. Serum GPT and GOT activities were measured by the method of Murray with a standard kit. The enzyme activities were estimated by measuring the decrease in absorbance of NADH at 340 nm. Bilirubin concentration was estimated by the colorimetric method of Kaplan et al.. Albumin concentration was measured colorimetrically by the color change of bromocresol from yellow-green to green-blue.
Kidney function tests. Creatinine was estimated colorimetrically by reacting with alkaline picrate forming a red complex. Urea was hydrolyzed enzymatically into ammonia which reacts with several compounds to form a green complex that can be measured colorimetrically. Uric acid was estimated by the enzymatic method of Schultz.

The mark [3] stands for this setting: II treated 12 mg/kg i.p. 12 days.
Setting [4] is: III treated 18 mg/kg i.p. 12 days.

Regarding `CS(C)=O.Nc1ccccc1-c1nc2ccccc2[nH]1.O.[Cl][Ru]([Cl])[Cl]` [(2), [Ru(III)Cl3(DMSO)(Hapbim)]·H2O], the “solution stability (UV-Vis spectral change)” value in series [1] was “changes in absorption bands near 288, 326, and 690 nm after 1 h”. In series [2] (I treated 6 mg/kg i.p. 12 days), the Albumin is reported as 0.9 ± 0.03 g/dL, the Bilirubin was 0.18 ± 0.03 mg/dL, the Creatinine was 0.7 ± 0.01 mg/dL and the GOT is listed as 248 ± 15.6 ^a U/L. For the same compound, in series [2] (I treated 6 mg/kg i.p. 12 days), the GPT stood at 15.2 ± 0.7 U/L, the Urea is 34.5 ± 0.4 mg/dL and the “Uric Acid” value was determined as 2.6 ± 0.1 mg/dL. In series [2] (setting [3]), this compound showed an Albumin of 2.7 ± 0.3 g/dL, a Bilirubin of 0.2 ± 0.03 mg/dL, a Creatinine of 0.7 ± 0.1 mg/dL and a GOT of 179 ± 10.8 U/L. Besides, in series [2] (setting [3]), the GPT was 17.8 ± 0.6 U/L, the Urea is reported as 34.2 ± 0.6 mg/dL and the “Uric Acid” value is 2.7 ± 0.1 mg/dL. In addition, in series [2] (setting [4]), the Albumin turned out to be 2.6 ± 0.1 g/dL, the Bilirubin amounted to 0.18 ± 0.02 mg/dL, the Creatinine is 1 ± 0.1 ^a mg/dL and the GOT worked out at 145 ± 39.3 U/L. Moreover, in series [2] (setting [4]), the GPT was found to be 31.9 ± 7.8 U/L, the Urea is given as 33.3 ± 1.2 mg/dL and the “Uric Acid” value was determined as 2.8 ± 0.1 mg/dL.
